Patent publication US20030087831A1, “1,3,4-Oxadiazolin-2-one derivatives and drugs containing these derivatives as the active ingredient” (priority 1999, published 2003)

Assays:
[1] = target: T1, Human Neutrophil Elastase (HNE) (Homo sapiens, UniProt P08246); assay: Inhibitory effects on human neutrophil elastase (HNE); format: biochemical; details: Dixon plot; substrate MeO-Suc-Ala-Ala-Pro-Val-p-nitroanilide; 0.1 M HEPES buffer pH 8.0; 37° C.
T1 sequence (P08246 30-267): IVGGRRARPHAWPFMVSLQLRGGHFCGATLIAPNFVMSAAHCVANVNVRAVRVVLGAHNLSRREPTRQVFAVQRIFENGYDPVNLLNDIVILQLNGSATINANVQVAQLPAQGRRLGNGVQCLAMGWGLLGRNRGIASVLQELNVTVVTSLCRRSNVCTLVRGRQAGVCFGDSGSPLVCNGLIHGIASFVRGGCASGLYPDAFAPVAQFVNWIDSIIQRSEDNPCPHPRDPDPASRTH
Protocol: (1) Inhibitory Effects on Human Neutrophil Elastase (HNE)
Various concentrations of test compounds or DMSO as a vehicle were added to 0.1 M HEPES buffer (pH 8.0) containing the synthetic substrate MeO-Suc-Ala-Ala-Pro-Val-p-nitroanilide (final concentration, 0.1, 0.2 or 0.4 mM), 0.5 M sodium chloride solution and 0.1% Polyethyleneglycol 6000 in a final volume of 180 μL. This mixture was pre-incubated at 37° C. for 5 minutes. Then, the reaction was started by the addition of 20 μL of each enzyme solution (final concentration, 0.2U/mL). The hydrolysis rate of substrate (mO.D./minute) was measured by continuously monitoring absorbance at 405 nm for 10 minutes at 30 seconds intervals. The Ki values were determined by Dixon plot.

[2] = test system: HNE-Induced Lung Hemorrhage; assay: Inhibitory effect on HNE-induced lung hemorrhage in hamsters; format: in vivo, male Syrian hamsters; details: Mesocricetus auratus, po, 1 h; administered orally one hour before intratracheal HNE (10 U/100 μL/lung); blood volume in BALF
Protocol: (2) Inhibitory Effect on HNE-Induced Lung Hemorrhage in Hamsters Test compound or vehicle solution (Polyethyleneglycol 400:ethanol:distilled water=51:16:33) was administered orally to male Syrian hamsters. One hour after administration, animals were anesthetized with sodium pentobarbital (60 mg/kg, i.p.) and their tracheae were exposed. Saline (100 μL/lung) or HNE (10 U/100 μL/lung) were instilled intratracheally. One hour after the instillation of HNE, animals were exsanguinated by cutting the abdominal aorta. The trachea was re-exposed and cannulated, then bronchoalveolar lavage fluid (BALF) was collected by infusing and withdrawing of saline (2.5 mL/animal). Erythrocytes in 0.2 mL of BALF sample were hemolyzed by adding 1.8 mL of distilled water. The lysate was centrifuged (3000 r.p.m., 4° C., 10 minutes), and absorbance of the supernatant at 412 nm was measured spectrophotometrically to calculate blood volume in BALF using a standard curve.

SMILES | Ki [1] | ED50 [2]
COC(=O)N[C@H](C(=O)N1CCC[C@H]1C(=O)N[C@H](C(=O)c1nn(Cc2ccsc2)c(=O)o1)C(C)C)C(C)C [Example 1, (methoxycarbonyl)-L-valyl-N-[(1S)-([3-(thiophen-3-ylmethyl)-1,3,4-oxadiazolin-2-one-5-yl]carbonyl)-2-methylpropyl]-L-prolinamide] | 4.27 nM | 
COC(=O)N[C@H](C(=O)N1CCC[C@H]1C(=O)N[C@H](C(=O)c1nn(-c2ccccc2)c(=O)o1)C(C)C)C(C)C [Example 2, (methoxycarbonyl)-L-valyl-N-[(1S)-([3-phenyl-1,3,4-oxadiazolin-2-one-5-yl]carbonyl)-2-methylpropyl]-L-prolinamide] | 3.41 nM | 18.6 mg/kg
